Results on ten compounds are retold here after US10457707B2, “Substituted urea depsipeptide analogs as activators of the CLPP endopeptidase” (priority 2015, dated 2019).

The structures appear in SMILES notation. Values after ≈ are worked out from the molar mass of the structure shown. Read-outs that look alike come from different tables or passages of the source.

What all share (format): cell-based
In data set [1] the test system is Bacillus subtilis, ATCC 23857. Nature of the data set: Minimal inhibitory concentration assay (microbroth dilution). The essentials: (§1)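 CLSI broth microdilution; 2-fold series from 200 μM final; inoculum ~10^5 cfu/mL; 37 °C, aerobic, overnight; visual MIC = lowest conc. without growth. The ClpP-inactivated USA 300 strain is the comparator for ClpP-dependent killing.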
(In general: In broth dilution the organism is exposed to a series of concentrations in liquid medium.)

Data set [2] concerns Enterococcus faecalis, ATCC 33186. The description is as above. In a few lines: as §1
Data set [3] concerns Staphylococcus aureus, ATCC 29213. Described as above. The conditions noted are these: ATCC29213, read-out: Minimal Inhibitory Concentrations S. aureus ATCC 29213. In a few lines: as §1
Data set [4] has as its system Staphylococcus aureus, NRS70. The description is as above. The essentials:
as §1

Data set [5] deals with Streptococcus pneumoniae, DAW27. Described as above. The conditions noted are these: DAW27, read-out: Minimal Inhibitory Concentrations S. pneumoniae DAW27. In a few lines:
as §1

The test system of data set [6] is Staphylococcus aureus, USA 300 wherein ClpP is inactivated. Nature of the data set: Minimal inhibitory concentration assay. In a few lines:
as §1

Data set [7] deals with Staphylococcus aureus, USA 300. Nature of the data set: Minimal inhibitory concentration assay. The conditions noted are these: USA300, read-out: Minimal Inhibitory Concentrations S. aureus USA 300. The essentials: as §1
Data set [8] deals with E. coli K12ΔtolC. Nature of the data set: Minimal inhibitory concentration assay (microbroth dilution).
For data set [9], the system named is Vero (kidney epithelial cells; ATCC CCL-81). In words: Cytotoxicity assay (CellTiter-Glo cell viability, 72 hours). As to conditions: Vero cells, 72 hours, growth inhibition; read-out: Cytotoxicity IC50. The essentials:
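Vero cells, 5000/well, grown overnight at 37° C, 5% CO2 in DMEM with 10% FBS, then exposed to serial compound dilutions or DMSO for 72 hours. Viability read by CellTiter-Glo luminescence. IC50 from duplicate wells, reported as range over two independent experiments.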
On the technique in general: Cellular ATP, detected with luciferase, serves as a proxy for viable cell number.

For data set [10], the system named is Streptococcus pyogenes, ATCC 700294. In words: Minimal inhibitory concentration assay (microbroth dilution). In a few lines:
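CLSI broth microdilution: two-fold serial compound dilutions in appropriate broth, inoculated and incubated aerobically overnight at 37° C. MIC read visually as lowest concentration preventing bacterial growth.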

Where [11] appears, read: Bacillus subtilis, ATCC23857; read-out: Minimal Inhibitory Concentrations B. subtilis ATCC 23857.
Where [12] appears, read: Enterococcus faecalis, ATCC33186; read-out: Minimal Inhibitory Concentrations E. faecalis ATCC 33186.
Where [13] appears, read: Staphylococcus aureus, NRS70; read-out: Minimal Inhibitory Concentrations S. aureus NRS70.
The mark [14] stands for this setting: Bacillus subtilis, ATCC23857, read-out: Minimal Inhibitory Concentrations B. subtilis ATCC 23857.
The mark [15] stands for this setting: Enterococcus faecalis, ATCC33186, read-out: Minimal Inhibitory Concentrations E. faecalis ATCC 33186.
The mark [16] stands for this setting: Staphylococcus aureus, NRS70, read-out: Minimal Inhibitory Concentrations S. aureus NRS70.
[17] abbreviates: Streptococcus pyogenes, ATCC700294, read-out: Minimal Inhibitory Concentrations S. pyogenes ATCC 700294.
[18] abbreviates: Streptococcus pyogenes, ATCC700294; read-out: Minimal Inhibitory Concentrations S. pyogenes ATCC 700294.

Take `O=C(N[C@H](CO)[C@H](O)c1ccc([N+](=O)[O-])cc1)C(Cl)Cl` [Chloroamphenicol, chloramphenicol, reference compound]: the MIC in data set [1] (setting [11]) was determined as 3.1 µM (≈ 1 µg/mL); in data set [2] (setting [12]), 0.39 µM (≈ 0.126 µg/mL); in [3] it was 3.13 µM (≈ 1.01 µg/mL); in data set [4] (setting [13]) it was 3.1 µM (≈ 1 µg/mL); in data set [5], 0.78 µM (≈ 0.252 µg/mL); in data set [7] it was 3.1 µM (≈ 1 µg/mL). In addition, the “Minimal Inhibitory Concentrations S. aureus USA 300 ΔClpP” value in data set [6] came out at 6.3 µM. The “Minimal Inhibitory Concentrations E. coli K12ΔtolC” value in [8] is 0.78 µM.

As for `C[C@@H]1C[C@H]2C(=O)OC[C@H](NC(=O)[C@H](Cc3ccccc3)NC(=O)Nc3ccccc3)C(=O)N3CCC[C@H]3C(=O)N3CCCC[C@H]3C(=O)N[C@@H](C)C(=O)N2C1` [Compound 1, (S)—N-((2R,6S,8aS,14aS,20S,23aS)-2,6-dimethyl-5,8,14,19,23-pentaoxooctadecahydro-1H,5H,14H,19H-pyrido[2,1-i]dipyrrolo[2,1-c:2′,1′-l][1]oxa[4,7,10,13]tetraazacyclohexadecin-20-yl)-3-phenyl-2-(3-phenylureido)propanamide], in data set [9], the IC50 was over 100 µM. For the same compound, the MIC was 1.56 µM (≈ 1.16 µg/mL) in data set [1] (setting [14]); 3.13 µM (≈ 2.33 µg/mL) in data set [2] (setting [15]); 6.25 µM (≈ 4.65 µg/mL) in [3]; 6.25 µM (≈ 4.65 µg/mL) in data set [4] (setting [16]); 0.78 µM (≈ 0.58 µg/mL) in [5]; 1.56 µM (≈ 1.16 µg/mL) in data set [10] (setting [17]). Besides, the “Minimal Inhibitory Concentrations E. coli K12ΔtolC” value in data set [8] came to 200 µM.

`C[C@@H]1C[C@H]2C(=O)OC[C@H](NC(=O)[C@H](Cc3ccccc3)NC(=O)Nc3ccc(OC(F)(F)F)cc3)C(=O)N3CCC[C@H]3C(=O)N3CCCC[C@H]3C(=O)N[C@@H](C)C(=O)N2C1` [Compound 2, (S)—N-((2R,6S,8aS,14aS,20S,23aS)-2,6-dimethyl-5,8,14,19,23-pentaoxooctadecahydro-1H,5H,14H,19H-pyrido[2,1-i]dipyrrolo[2,1-c:2′,1′-l][1]oxa[4,7,10,13]tetraazacyclohexadecin-20-yl)-3-phenyl-2-(3-(4-(trifluoromethoxy)phenyl)ureido)propanamide]: the MIC in data set [1] (setting [11]) worked out at 0.2 µM (≈ 0.166 µg/mL); in data set [2] (setting [12]), 0.02 µM (≈ 0.0166 µg/mL); in data set [4] (S. aureus NRS70; read-out: Minimal Inhibitory Concentrations S. aureus NRS70), 0.20 µM (≈ 0.166 µg/mL); in [5], 0.02 µM (≈ 0.0166 µg/mL); in data set [10] (S. pyogenes ATCC 700294; read-out: Minimal Inhibitory Concentrations S. pyogenes ATCC 700294) it was 0.10 µM (≈ 0.0828 µg/mL). For the same compound, the “Minimal Inhibitory Concentrations E. coli K12ΔtolC” value in [8] was 12.5 µM.

`CCc1ccc(NC(=O)N[C@@H](Cc2ccccc2)C(=O)N[C@H]2COC(=O)[C@@H]3C[C@@H](C)CN3C(=O)[C@H](C)NC(=O)[C@@H]3CCCCN3C(=O)[C@@H]3CCCN3C2=O)cc1` [Compound 4, (S)—N-((2R,6S,8aS,14aS,20S,23aS)-2,6-dimethyl-5,8,14,19,23-pentaoxooctadecahydro-1H,5H,14H,19H-pyrido[2,1-i]dipyrrolo[2,1-c:2′,1′-l][1]oxa[4,7,10,13]tetraazacyclohexadecin-20-yl)-2-(3-(4-ethylphenyl)ureido)-3-phenylpropanamide]: the MIC in [1] (setting [11]) was 0.2 µM (≈ 0.154 µg/mL); in data set [2] (setting [12]), 0.1 µM (≈ 0.0772 µg/mL); in data set [3] it was 0.78 µM (≈ 0.602 µg/mL); in data set [4] (setting [13]), 0.39 µM (≈ 0.301 µg/mL); in data set [5], 0.04 µM (≈ 0.0309 µg/mL); in data set [10] (setting [18]), 0.2 µM (≈ 0.154 µg/mL). In [8], the “Minimal Inhibitory Concentrations E. coli K12ΔtolC” value is 25 µM.

Regarding `COc1cccc(NC(=O)N[C@@H](Cc2ccccc2)C(=O)N[C@H]2COC(=O)[C@@H]3C[C@@H](C)CN3C(=O)[C@H](C)NC(=O)[C@@H]3CCCCN3C(=O)[C@@H]3CCCN3C2=O)c1` [Compound 8, (S)—N-((2R,6S,8aS,14aS,20S,23aS)-2,6-dimethyl-5,8,14,19,23-pentaoxooctadecahydro-1H,5H,14H,19H-pyrido[2,1-i]dipyrrolo[2,1-c:2′,1′-l][1]oxa[4,7,10,13]tetraazacyclohexadecin-20-yl)-2-(3-(3-methoxyphenyl)ureido)-3-phenylpropanamide], the MIC in data set [1] (setting [11]) was 3.13 µM (≈ 2.42 µg/mL); in [2] (setting [12]) it was 1.56 µM (≈ 1.21 µg/mL); in data set [3], 3.13 µM (≈ 2.42 µg/mL); in [4] (setting [13]), 3.13 µM (≈ 2.42 µg/mL); in data set [5], 0.39 µM (≈ 0.302 µg/mL); in [10] (setting [18]), 0.78 µM (≈ 0.604 µg/mL). Also, the “Minimal Inhibitory Concentrations E. coli K12ΔtolC” value in [8] came to 200 µM.

On to `C[C@@H]1C[C@H]2C(=O)OC[C@H](NC(=O)[C@H](Cc3ccccc3)NC(=O)Nc3ccc4c(c3)CCN4C)C(=O)N3CCC[C@H]3C(=O)N3CCCC[C@H]3C(=O)N[C@@H](C)C(=O)N2C1` [Compound 11, (S)—N-((2R,6S,8aS,14aS,20S,23aS)-2,6-dimethyl-5,8,14,19,23-pentaoxooctadecahydro-1H,5H,14H,19H-pyrido[2,1-i]dipyrrolo[2,1-c:2′,1′-l][1]oxa[4,7,10,13]tetraazacyclohexadecin-20-yl)-2-(3-(1-methylindolin-5-yl)ureido)-3-phenylpropanamide], for which, in data set [9], the IC50 was 76 ± 10.6 µM. Besides, the MIC stood at 1.25 µM (≈ 0.999 µg/mL) in data set [1] (setting [14]); 0.6 µM (≈ 0.479 µg/mL) in data set [2] (setting [15]); 2.5 µM (≈ 2 µg/mL) in data set [3]; 1.25 µM (≈ 0.999 µg/mL) in [4] (setting [16]); 0.3 µM (≈ 0.24 µg/mL) in data set [5]; 0.6 µM (≈ 0.479 µg/mL) in [10] (setting [17]).

Regarding `C[C@@H]1C[C@H]2C(=O)OC[C@H](NC(=O)[C@H](Cc3ccccc3)NC(=O)Nc3ccc4ccn(C)c4c3)C(=O)N3CCC[C@H]3C(=O)N3CCCC[C@H]3C(=O)N[C@@H](C)C(=O)N2C1` [Compound 12, (S)—N-((2R,6S,8aS,14aS,20S,23aS)-2,6-dimethyl-5,8,14,19,23-pentaoxooctadecahydro-1H,5H,14H,19H-pyrido[2,1-i]dipyrrolo[2,1-c:2′,1′-l][1]oxa[4,7,10,13]tetraazacyclohexadecin-20-yl)-2-(3-(1-methyl-1H-indol-6-yl)ureido)-3-phenylpropanamide], the IC50 in [9] is 90 ± 7.6 µM. Besides, the MIC in data set [1] (setting [14]) stood at 2.5 µM (≈ 1.99 µg/mL); in data set [2] (setting [15]), 1.25 µM (≈ 0.996 µg/mL); in data set [3] it was 2.5 µM (≈ 1.99 µg/mL); in data set [4] (setting [16]), 2.5 µM (≈ 1.99 µg/mL); in data set [5], 0.3 µM (≈ 0.239 µg/mL); in data set [10] (setting [17]), 0.6 µM (≈ 0.478 µg/mL).

In the case of `CCc1ccc(NC(=O)N[C@@H](Cc2cc(F)cc(F)c2)C(=O)N[C@H]2COC(=O)[C@@H]3C[C@@H](C)CN3C(=O)[C@H](C)NC(=O)[C@@H]3CCCCN3C(=O)[C@@H]3CCCN3C2=O)cc1` [Compound 14, (S)-3-(3,5-difluorophenyl)-N-((2R,6S,8aS,14aS,20S,23aS)-2,6-dimethyl-5,8,14,19,23-pentaoxooctadecahydro-1H,5H,14H,19H-pyrido[2,1-i]dipyrrolo[2,1-c:2′,1′-l][1]oxa[4,7,10,13]tetraazacyclohexadecin-20-yl)-2-(3-(4-ethylphenyl)ureido)propanamide], the MIC in data set [1] (setting [11]) worked out at 0.08 µM (≈ 0.0646 µg/mL); in data set [2] (setting [12]), 0.04 µM (≈ 0.0323 µg/mL); in [3], 0.1 µM (≈ 0.0808 µg/mL); in [4] (setting [13]), 0.08 µM (≈ 0.0646 µg/mL); in data set [5], 0.04 µM (≈ 0.0323 µg/mL); in data set [10] (setting [18]), 0.8 µM (≈ 0.646 µg/mL).

In the case of `NC[C@H]1O[C@H](O[C@H]2[C@H](O)[C@@H](O[C@H]3O[C@H](CO)[C@@H](O)[C@H](N)[C@H]3O)[C@H](N)C[C@@H]2N)[C@H](O)[C@@H](O)[C@@H]1O` [Kanamycin, kanamycin, reference compound], the MIC amounted to 0.1 µM (≈ 0.0485 µg/mL) in data set [1] (setting [11]); 25 µM (≈ 12.1 µg/mL) in data set [2] (setting [12]); 1.56 µM (≈ 0.756 µg/mL) in [3]; 50 µM (≈ 24.2 µg/mL) in data set [4] (setting [13]); 25 µM (≈ 12.1 µg/mL) in data set [5]; 12.5 µM (≈ 6.06 µg/mL) in data set [10] (setting [18]). The “Minimal Inhibitory Concentrations E. coli K12ΔtolC” value in data set [8] worked out at 0.4 µM.

`CN(C)[C@@H]1C(O)=C(C(N)=O)C(=O)[C@@]2(O)C(O)=C3C(=O)c4c(O)cccc4[C@@](C)(O)[C@H]3C[C@@H]12` [Tetracycline, tetracycline, reference compound]: the MIC in data set [1] (setting [11]) is 1.6 µM (≈ 0.711 µg/mL); in [2] (setting [12]) it was 0.05 µM (≈ 0.0222 µg/mL); in data set [3] it was 0.1 µM (≈ 0.0444 µg/mL); in data set [4] (setting [13]), 0.05 µM (≈ 0.0222 µg/mL); in [5], 0.1 µM (≈ 0.0444 µg/mL); in data set [10] (setting [18]), 0.1 µM (≈ 0.0444 µg/mL). In data set [7], the MIC is 0.1 µM (≈ 0.0444 µg/mL).

A word on the IC50: it is the concentration that inhibits the measured activity by half.
